Test results reported in the NIST ThermoML archive (doi:10.1016/j.jct.2014.07.019).

Test: xn = mol fraction of the nth substance listed
Conditions: 100 kPa, Liquid; for mass density: Vibrating tube method; for speed of sound: Frequency=3 MHz, Sing-around technique in a fixed-path interferometer

CCCCOCC(C)O (stereo not given) [1-butoxy-2-propanol] + CCC(C)O
Conditions	mass density, 303.15 K [kg/m3]	mass density, 308.15 K [kg/m3]	mass density, 313.15 K [kg/m3]	speed of sound, 308.15 K [m/s]	speed of sound, 313.15 K [m/s]
x1 = 0.0517	804.434	800.162	795.809	1181.6	1163.6
x1 = 0.1014	809.949	805.653	801.286	1186	1168
x1 = 0.1527	815.316	811.017	806.644	1190	1172
x1 = 0.2041	820.316	816	811.61	1194	1176
x1 = 0.2815	827.23	822.897	818.493	1199.1	1181.2
x1 = 0.3581	833.49	829.144	824.735	1203.6	1185.7
x1 = 0.4421	839.804	835.438	831.018	1207.9	1190
x1 = 0.5348	846.095	841.719	837.299	1212	1194.1
x1 = 0.627	851.795	847.417	842.98	1215.3	1197.5
x1 = 0.7213	857.116	852.712	848.267	1218.2	1200.3
x1 = 0.8116	861.747	857.328	852.892	1220.6	1202.8
x1 = 0.8581	863.985	859.577	855.127	1221.9	1204.1
x1 = 0.9062	866.21	861.774	857.32	1222.8	1205
x1 = 0.9536	868.316	863.853	859.383	1223.9	1206.1
x1 = 1	870.204	865.737	861.241	1224.9	1207
